Measured values from patent publication US20260263403A1, “COMPOSITIONS AND METHODS FOR TREATING TRAUMATIC BRAIN INJURY” (THE CHILDREN'S HOSPITAL OF PHILADELPHIA, priority 2023, published 2026).

Columns and labels:
[1] = solubility/precipitation of BCAA drink during study preparation; type: physicochemical; conditions: 60 g/day dose divided twice daily, initial study preparation
Text: The three BCAAs, valine, isoleucine, and leucine, were combined together in a 1:1:1 ratio for the four treatment doses. […] Given the unknown optimal dose of BCAA supplementation for concussion, doses of 15 g, 30 g, 45 g, and 60 g divided twice daily were chosen as initial treatment doses.

[2] = test system: acetate levels in the brain; conditions: dietary supplement, within one hour of administration; cited from earlier work

Structure (SMILES) | precipitation at the highest dose [1] | increase of acetate levels in the brain [2]
CC(C)C[C@H](N)C(=O)O [leucine] | precipitating at a lower concentration than expected | –
CC(=O)OCC(COC(C)=O)OC(C)=O [GTA, glyceryl triacetate] | – | over 15 fold
